Assay results as given in PubChem BioAssay AID504528 (Sanford-Burnham Center for Chemical Genomics, 2011).
Activity calls are given as the source filed them.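 The calls were made as follows: active = mean IC50 of 20 µM or lower; inactive = the rest.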

Tested on: HEK-293T NF-kB-Luc cytotoxicity, resazurin fluorescence, 14 h
Experiment: HEK-293T cell viability loss – cytotoxicity control for B-cell antigen receptor NF-kB inhibitors, SAR follow-up (AID 504528)

Question: `CCc1ccc(-c2noc(CCC(=O)NC(C)(C)C)n2)cc1` was tested. Which IC50 did it give?
Answer: Its IC50 is > 79 µM (inactive).

Question: For `CCc1ccc(-c2nc(CSCC(=O)NC3CC3)c(-c3ccccc3)o2)cc1`, which IC50 is on record?
Answer: The IC50 was > 79 µM (inactive).

Question: For `CNC(=O)CCc1nc(-c2ccc(C(C)C)cc2)no1`, which IC50 is on record?
Answer: Its IC50 is > 79 µM (inactive).

Question: `CCNC(=O)CCc1nc(-c2ccccc2Cl)no1` was tested. Which IC50 did it give?
Answer: The IC50 was > 79 µM (inactive).

Question: For `CCCCOc1ccc(-c2nc(CSCC(=O)NC3CC3)c(C)o2)cc1`, which IC50 is on record?
Answer: Its IC50 is > 79 µM (inactive).

Question: How did the IC50 turn out when `CC(C)c1ccc(-c2noc(CCC(=O)NC(C)(C)C)n2)cc1` was run?
Answer: Its IC50 is > 79 µM (inactive).

Question: `CCOc1ccccc1-c1nc(CSCC(=O)O)c(C)o1` was tested. Which IC50 did it give?
Answer: The IC50 was > 79 µM (inactive).

Question: For `Cc1oc(-c2ccc(C(F)(F)F)cc2)nc1CSCC(=O)O`, which IC50 is on record?
Answer: Its IC50 is > 79 µM (inactive).

Question: For `COc1cccc(-c2cc(=O)c3cc(NC(=O)c4ccccc4)ccc3[nH]2)c1`, which IC50 is on record?
Answer: Its IC50 is 60.4 µM (inactive).

Question: Which IC50 does the source give for `COc1cccc(-c2cc(=O)c3cc(NC(=O)c4ccc(N(C)C)cc4)ccc3[nH]2)c1` here?
Answer: The IC50 was 2.25 µM.

Question: How did the IC50 turn out when `CCNC(=O)CCc1nc(-c2c(Cl)cccc2Cl)no1` was run?
Answer: Its IC50 is > 79 µM (inactive).

Question: `CCNC(=O)CCc1nc(-c2cccc(F)c2)no1` was tested. Which IC50 did it give?
Answer: Its IC50 is > 79 µM (inactive).

Question: `CCC(C)NC(=O)CCc1nc(-c2ccc(C(C)(C)C)cc2)no1` (configuration not stated) was tested. Which IC50 did it give?
Answer: The IC50 was > 79 µM (inactive).

Question: For `CCCCOc1ccc(-c2nc(CSCC(=O)O)c(C)o2)cc1`, which IC50 is on record?
Answer: The IC50 was > 79 µM (inactive).

Question: Which IC50 does the source give for `COc1ccc(C(=O)Nc2ccc3[nH]c(-c4cccc(OC)c4)cc(=O)c3c2)cc1` here?
Answer: Its IC50 is > 79 µM (inactive).

Question: `CCCCc1ccc(-c2noc(CCC(=O)NCC)n2)cc1` was tested. Which IC50 did it give?
Answer: The IC50 was > 79 µM (inactive).

Question: `CC(C)c1ccc(-c2noc(CCC(=O)NC3CC3)n2)cc1` was tested. Which IC50 did it give?
Answer: Its IC50 is > 79 µM (inactive).

Question: Which IC50 does the source give for `CCC(C)NC(=O)CCc1nc(-c2ccccc2)no1` (configuration not stated) here?
Answer: Its IC50 is > 79 µM (inactive).

Question: For `CCOc1ccc(-c2nc(CSCC(=O)O)c(C)o2)cc1`, which IC50 is on record?
Answer: The IC50 was > 79 µM (inactive).

Question: With `CCCOc1ccc(-c2nc(CSCC(=O)NC3CC3)c(C)o2)cc1` as the molecule, how does the IC50 read?
Answer: Its IC50 is > 79 µM (inactive).

Question: How did the IC50 turn out when `CCOc1ccc(-c2nc(CSCC(=O)NCC3CC3)c(C)o2)cc1` was run?
Answer: Its IC50 is > 79 µM (inactive).

Question: How did the IC50 turn out when `CCOc1ccc(-c2nc(CSCC(=O)N3CCOCC3)c(C)o2)cc1` was run?
Answer: Its IC50 is > 79 µM (inactive).

Question: With `CCOc1ccc(-c2nc(CSCC(=O)N(C)C)c(C)o2)cc1` as the molecule, how does the IC50 read?
Answer: The IC50 was > 79 µM (inactive).

Question: With `CCc1ccc(-c2noc(CCC(=O)NC)n2)cc1` as the molecule, how does the IC50 read?
Answer: Its IC50 is > 79 µM (inactive).

Question: How did the IC50 turn out when `CCOc1ccc(-c2nc(CSCC(=O)NC(C)(C)C)c(C)o2)cc1` was run?
Answer: The IC50 was > 79 µM (inactive).

Question: With `CCCCc1ccc(-c2noc(CCC(=O)NC(C)(C)C)n2)cc1` as the molecule, how does the IC50 read?
Answer: The IC50 was > 79 µM (inactive).

Question: Which IC50 does the source give for `O=C(CCc1nc(-c2ccccc2)no1)NC1CC1` here?
Answer: Its IC50 is > 79 µM (inactive).

Question: With `Cc1ccc(-c2nc(CSCC(=O)NCc3ccco3)c(C)o2)cc1` as the molecule, how does the IC50 read?
Answer: The IC50 was > 79 µM (inactive).

Question: How did the IC50 turn out when `CCCCOc1ccc(-c2nc(CSCC(=O)NCc3ccco3)c(C)o2)cc1` was run?
Answer: Its IC50 is > 79 µM (inactive).

Question: How did the IC50 turn out when `CCOc1cccc(-c2nc(CSCC(=O)NC3CC3)c(C)o2)c1` was run?
Answer: The IC50 was > 79 µM (inactive).

Question: How did the IC50 turn out when `CCOc1ccc(-c2nc(CSCC(=O)NC3CCC3)c(C)o2)cc1` was run?
Answer: Its IC50 is > 79 µM (inactive).

Question: With `CCc1ccc(-c2noc(CCC(=O)NC(C)CC)n2)cc1` (configuration not stated) as the molecule, how does the IC50 read?
Answer: The IC50 was > 79 µM (inactive).

Question: For `Cc1oc(-c2ccc(OC(F)(F)F)cc2)nc1CSCC(=O)O`, which IC50 is on record?
Answer: The IC50 was > 79 µM (inactive).

Question: For `CCNC(=O)CCc1nc(-c2cccc(OC)c2)no1`, which IC50 is on record?
Answer: Its IC50 is > 79 µM (inactive).

Question: With `Cc1oc(-c2ccc(C(F)(F)F)cc2)nc1CSCC(=O)NC1CC1` as the molecule, how does the IC50 read?
Answer: The IC50 was > 79 µM (inactive).

Question: With `CCNC(=O)CCc1nc(-c2ccc(CC)cc2)no1` as the molecule, how does the IC50 read?
Answer: The IC50 was > 79 µM (inactive).

Question: Which IC50 does the source give for `CC(C)Nc1ccc(C(CC(=O)O)NC(=O)c2ccccc2)cc1[N+](=O)[O-]` (configuration not stated) here?
Answer: Its IC50 is > 79 µM (inactive).

Question: `CCOC(=O)CC(NC(=O)c1ccc(Br)cc1)c1ccc(F)c([N+](=O)[O-])c1` (configuration not stated) was tested. Which IC50 did it give?
Answer: The IC50 was > 79 µM (inactive).

Question: `CCCCc1ccc(-c2noc(CCC(=O)NC(C)CC)n2)cc1` (configuration not stated) was tested. Which IC50 did it give?
Answer: Its IC50 is > 79 µM (inactive).

Question: How did the IC50 turn out when `C#CCNC(=O)CSCc1nc(-c2ccc(OCC)cc2)oc1C` was run?
Answer: The IC50 was > 79 µM (inactive).

Question: Which IC50 does the source give for `CC(C)(C)NC(=O)CCc1nc(-c2ccccc2)no1` here?
Answer: Its IC50 is > 79 µM (inactive).

Question: `Cc1ccc(-c2nc(CSCC(=O)NC3CC3)c(C)o2)cc1` was tested. Which IC50 did it give?
Answer: The IC50 was > 79 µM (inactive).

Question: How did the IC50 turn out when `CCOc1ccc(-c2nc(CSCC(N)=O)c(C)o2)cc1` was run?
Answer: Its IC50 is > 79 µM (inactive).

Question: Which IC50 does the source give for `CCc1ccc(-c2noc(CCC(=O)NC3CC3)n2)cc1` here?
Answer: The IC50 was > 79 µM (inactive).

Question: How did the IC50 turn out when `CCNC(=O)CCc1nc(-c2ccc(C(C)C)cc2)no1` was run?
Answer: Its IC50 is > 79 µM (inactive).

Question: `CCOc1ccccc1-c1nc(CSCC(=O)NC2CC2)c(C)o1` was tested. Which IC50 did it give?
Answer: Its IC50 is > 79 µM (inactive).

Question: `CCOc1ccc(-c2nc(CSCC(=O)NC3CC3)c(-c3ccccc3)o2)cc1` was tested. Which IC50 did it give?
Answer: Its IC50 is > 79 µM (inactive).

Question: `CCOc1ccc(-c2nc(CSCC(=O)NC)c(C)o2)cc1` was tested. Which IC50 did it give?
Answer: The IC50 was > 79 µM (inactive).

Question: With `CCCOc1ccc(-c2nc(CSCC(=O)NCc3ccco3)c(C)o2)cc1` as the molecule, how does the IC50 read?
Answer: The IC50 was 59.8 µM (inactive).

Question: With `CCNC(=O)CCc1nc(-c2cccc(C)c2)no1` as the molecule, how does the IC50 read?
Answer: Its IC50 is > 79 µM (inactive).

Question: How did the IC50 turn out when `CCNC(=O)CCc1nc(-c2ccccc2C)no1` was run?
Answer: Its IC50 is > 79 µM (inactive).

Question: `CCCOc1ccc(-c2nc(CSCC(=O)O)c(C)o2)cc1` was tested. Which IC50 did it give?
Answer: The IC50 was > 79 µM (inactive).

Question: `CCCCc1ccc(-c2noc(CCC(=O)NC3CC3)n2)cc1` was tested. Which IC50 did it give?
Answer: Its IC50 is > 79 µM (inactive).

Question: Which IC50 does the source give for `Cc1oc(-c2ccc(OC(F)(F)F)cc2)nc1CSCC(=O)NC1CC1` here?
Answer: Its IC50 is > 79 µM (inactive).

Question: `CCCCc1ccc(-c2noc(CCC(=O)NC)n2)cc1` was tested. Which IC50 did it give?
Answer: Its IC50 is > 79 µM (inactive).

Question: Which IC50 does the source give for `CCC(C)NC(=O)CCc1nc(-c2ccc(C(C)C)cc2)no1` (configuration not stated) here?
Answer: Its IC50 is > 79 µM (inactive).

Question: With `CC(C)(C)c1ccc(-c2noc(CCC(=O)NC3CCC3)n2)cc1` as the molecule, how does the IC50 read?
Answer: Its IC50 is > 79 µM (inactive).
